Results on 17 compounds are retold here after patent US12390472B2 (SUZHOU SINOVENT PHARMACEUTICALS CO., LTD., priority 2018, dated 2025).

For orientation: IC50 means the midpoint of a concentration-inhibition curve. In general, AUC(0-inf) refers to the area under the concentration-time curve extrapolated to infinity. A higher AUC(0-inf) goes with high exposure. The term Cmax denotes the peak of the concentration-time curve. By Tmax is commonly meant the time at which the peak concentration occurs. One may read the half-life as the time needed for the level to fall by half in the phase considered. A lower half-life goes with fast loss.

The target in one series is EZH2 enzyme complex (Homo sapiens (Human), UniProt Q15910). Put plainly: Test on EZH2 inhibitory activity (TR-FRET). The settings on record: EZH2 enzyme complex 25 ng/uL, histone H3 peptide 4 uM, SAM 2 uM, 300 min; read-out: IC50 of EZH2 inhibition. Format: biochemical. In general terms: Time-resolved FRET reads energy transfer from a long-lived donor to a nearby acceptor.

Series [1] can be described thus: In vivo pharmacokinetic properties in mice. The conditions noted are these: male ICR mice; for F: intragastric 250 mg/kg vs intravenous 5 mg/kg; for CL / AUC(0-inf) / Cmax / Tmax / half-life: single intravenous 5 mg/kg and intragastric 250 mg/kg study; for AUC(0-inf) / Cmax / Tmax / half-life: mouse, plasma; for AUC(0-inf) / Cmax / Tmax: oral; for Cmax: read-out: Cmax; for Tmax: read-out: Tmax. Also on record: species or system mouse. How it is done: Male ICR mice were divided into different groups with 3 mice in each group, and single intravenous injection and single intragastric administration were conducted respectively. The compounds were formulated with 10% DMSO/90% (20% Captisol) to reach an appropriate concentration and then administered intravenously at 5 mg/kg. The compounds were formulated with 0.5% CMC-Na/0.1% Tween 80 (pH=3-4) to reach an appropriate concentration and then administered intragastrically at 250 mg/kg. Blood was taken at 5 min, 15 min, 30 min, 1 h, 2 h, 4 h, 6 h, 8 h and 24 h after administration, and then subjected to EDTA-K2 anticoagulation. The concentration of the compound in the plasma was quantitatively detected by an LC-MS/MS method.

EZH2 enzyme complex, sequence (Q15910 whole entry): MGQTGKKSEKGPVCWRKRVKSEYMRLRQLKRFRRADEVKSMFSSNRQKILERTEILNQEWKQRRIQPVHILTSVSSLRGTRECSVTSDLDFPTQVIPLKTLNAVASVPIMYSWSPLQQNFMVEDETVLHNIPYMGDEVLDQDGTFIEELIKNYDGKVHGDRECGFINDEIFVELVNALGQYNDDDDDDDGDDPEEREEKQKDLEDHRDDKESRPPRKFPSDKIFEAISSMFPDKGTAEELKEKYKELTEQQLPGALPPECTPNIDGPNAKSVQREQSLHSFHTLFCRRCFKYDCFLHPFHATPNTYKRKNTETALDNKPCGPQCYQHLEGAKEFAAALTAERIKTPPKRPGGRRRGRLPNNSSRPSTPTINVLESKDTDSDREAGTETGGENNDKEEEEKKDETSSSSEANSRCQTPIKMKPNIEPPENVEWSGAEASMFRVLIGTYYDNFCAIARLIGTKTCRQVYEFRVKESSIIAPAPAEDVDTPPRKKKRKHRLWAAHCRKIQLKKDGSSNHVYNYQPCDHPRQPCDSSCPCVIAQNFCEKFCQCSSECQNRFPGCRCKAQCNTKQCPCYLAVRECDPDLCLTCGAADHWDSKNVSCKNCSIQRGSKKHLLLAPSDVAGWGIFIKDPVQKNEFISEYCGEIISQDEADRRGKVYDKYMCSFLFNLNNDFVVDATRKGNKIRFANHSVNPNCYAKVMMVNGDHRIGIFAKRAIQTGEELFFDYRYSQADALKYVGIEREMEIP
EZH2 enzyme complex, sequence (O75530 whole entry partner): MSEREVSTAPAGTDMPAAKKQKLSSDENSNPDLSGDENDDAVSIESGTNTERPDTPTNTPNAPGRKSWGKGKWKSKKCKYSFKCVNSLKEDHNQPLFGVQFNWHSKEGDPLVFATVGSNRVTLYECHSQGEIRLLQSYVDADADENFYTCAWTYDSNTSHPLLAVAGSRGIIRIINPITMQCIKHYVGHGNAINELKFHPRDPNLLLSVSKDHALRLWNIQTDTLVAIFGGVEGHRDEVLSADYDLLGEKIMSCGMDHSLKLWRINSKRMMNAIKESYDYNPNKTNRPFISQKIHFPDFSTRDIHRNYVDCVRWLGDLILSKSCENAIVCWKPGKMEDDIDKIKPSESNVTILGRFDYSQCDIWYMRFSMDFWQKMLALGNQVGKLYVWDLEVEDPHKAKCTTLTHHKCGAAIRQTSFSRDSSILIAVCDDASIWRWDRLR
EZH2 enzyme complex, sequence (Q15022 whole entry partner): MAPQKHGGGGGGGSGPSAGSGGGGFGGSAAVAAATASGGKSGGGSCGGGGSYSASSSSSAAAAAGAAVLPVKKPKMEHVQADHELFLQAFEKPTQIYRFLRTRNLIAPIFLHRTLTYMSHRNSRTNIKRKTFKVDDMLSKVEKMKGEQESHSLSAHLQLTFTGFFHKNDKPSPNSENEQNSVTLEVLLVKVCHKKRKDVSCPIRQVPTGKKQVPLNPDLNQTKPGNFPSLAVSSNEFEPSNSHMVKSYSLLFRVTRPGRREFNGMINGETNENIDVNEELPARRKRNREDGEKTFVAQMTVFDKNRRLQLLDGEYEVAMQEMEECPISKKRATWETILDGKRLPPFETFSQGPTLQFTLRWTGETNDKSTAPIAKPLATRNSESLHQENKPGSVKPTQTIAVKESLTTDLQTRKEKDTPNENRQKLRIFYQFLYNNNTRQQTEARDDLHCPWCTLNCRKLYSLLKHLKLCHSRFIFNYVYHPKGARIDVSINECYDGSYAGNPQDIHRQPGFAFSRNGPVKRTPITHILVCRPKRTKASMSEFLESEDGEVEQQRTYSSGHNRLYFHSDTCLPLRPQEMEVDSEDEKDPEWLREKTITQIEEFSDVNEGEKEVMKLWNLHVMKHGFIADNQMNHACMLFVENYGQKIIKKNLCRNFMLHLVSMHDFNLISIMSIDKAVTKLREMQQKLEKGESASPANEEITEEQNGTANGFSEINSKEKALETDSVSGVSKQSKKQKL
Description for EZH2 enzyme complex: • EZH2 enzyme complex: 25 ng/uL • Histone H3 peptide substrate: 4 uM • SAM: 2 uM • Reaction time: 300 min Procedures • 1. Each compound disclosed herein was diluted with 1×HMT buffer and transferred to a 384-well assay plate at 3 uL per well; • 2. The EZH2 enzyme solution was prepared with 1×HMT buffer and transferred to the 384-well assay plate at 2 uL per well; • 3. The above assay plate was incubated for 30 min; • 4. A mixture solution of SAM and histone H3 peptide substrate at 2-fold concentration was prepared with 4×HMT buffer; • 5. 5 uL of the mixture solution of SAM and substrate was added to each well of the assay plate to react at room temperature, and the assay plate was sealed with plastic; • 6. After incubation for 5 h, 10 uL of TR-FRET detection buffer containing Tb-labeled antibody and dye-labeled receptor was added to each well of the assay plate; • 7. After incubation for 1 h at room temperature, the assay plate was detected; • 8.

Take `CCN(c1cc(C2CC2CN2CCOCC2)cc(C(=O)NCc2c(C)cc(C)[nH]c2=O)c1Cl)C1CCOCC1` (stereo not drawn) [Example 84, 2-chloro-N-((4,6-dimethyl-2-oxo-1,2-dihydropyridin-3-yl)methyl)-3-(ethyl(tetrahydro-2H-pyran-4-yl)amino)-5-(2-(morpholinylmethyl)cyclopropyl)benzamide]: on EZH2 enzyme complex, the IC50 is 100 to 1000 nM.

As for `CCN(c1cc(O[C@H]2C[C@H](CN3CCOCC3)C2)cc(C(=O)NCc2c(C)cc(C)[nH]c2=O)c1C)[C@H]1CC[C@H](N(C)CCOC)CC1` [Example 32, N-((4,6-dimethyl-2-oxo-1,2-dihydropyridin-3-yl)methyl)-3-(ethyl(trans-4-((2-methoxyethyl)(methyl)amino)cyclohexyl)amino)-2-methyl-5-(trans-3-(morpholinylmethyl)cyclobutoxy)benzamide], the half-maximal inhibitory concentration (IC50) at EZH2 enzyme complex was 10 to 100 nM.

Take `CCN(c1cc(O[C@H]2C[C@H](CN3CCOCC3)C2)cc(C(=O)NCc2c(C)cc(C)[nH]c2=O)c1F)C1CCOCC1` [Example 61, N-((4,6-dimethyl-2-oxo-1,2-dihydropyridin-3-yl)methyl)-3-(ethyl(tetrahydro-2H-pyran-4-yl)amino)-2-fluoro-5-(trans-3-(morpholinomethyl)cyclobutoxy)benzamide]: the 50% inhibitory concentration (IC50) at EZH2 enzyme complex is above 1000 nM.

In the case of `CCN(c1cc(O[C@H]2C[C@H](N3CC4CC(C3)O4)C2)cc(C(=O)NCc2c(C)cc(C)[nH]c2=O)c1C)C1CCOCC1` [Example 54, 5-(trans-3-(6-oxa-3-azabicyclo[3.1.1]heptan-3-yl)cyclobutoxy)-N-((4,6-dimethyl-2-oxo-1,2-dihydropyridin-3-yl)methyl)-3-(ethyl(tetrahydro-2H-pyran-4-yl)amino)-2-methylbenzamide], the half-inhibitory concentration (IC50) on EZH2 enzyme complex is 10 to 100 nM.

As to `CCN(c1cc(C2CC2CN2CCN(C)CC2)cc(C(=O)NCc2c(C)cc(C)[nH]c2=O)c1C)[C@H]1CC[C@H](N(C)CCOC)CC1` (stereo partly drawn) [Example 81, N-((4,6-dimethyl-2-oxo-1,2-dihydropyridin-3-yl)methyl)-3-(ethyl(trans-4-((2-methoxyethyl)(methyl)amino)cyclohexyl)amino)-2-methyl-5-(2-((4-methylpiperazin-1-yl)methyl)cyclopropyl)benzamide], the IC50 on EZH2 enzyme complex lay within 10 to 100 nM.

Take `CCN(c1cc(O[C@H]2C[C@H](N3CCOCC3)C2)cc(C(=O)NCc2c(C)cc(C)[nH]c2=O)c1C)C1CC2CCC(C1)O2` (stereo partly drawn) [Example 86]: in series [1], the F turned out to be 29.5%, the CL worked out at 65.5 ± 1.60 mL/min/lg, the AUC(0-inf) worked out at 18800 ± 4560 ng·h/mL and the Cmax was determined as 21000 ± 8040 ng/mL. In series [1], the Tmax was found to be 15 min and the half-life was 251 ± 184 min.

As for `CCN(c1cc(O[C@H]2C[C@H](N3C[C@@H](C)O[C@@H](C)C3)C2)cc(C(=O)NCc2c(C)cc(C)[nH]c2=O)c1C)C1CCN(CC(F)(F)F)CC1` [Example 50, N-((4,6-dimethyl-2-oxo-1,2-dihydropyridin-3-yl)methyl)-5-(trans-3-(cis-2,6-dimethylmorpholinyl)cyclobutoxy)-3-(ethyl (1-(2,2,2-trifluoroethyl)piperidin-4-yl)amino)-2-methylbenzamide], the concentration for half-maximal inhibition (IC50) at EZH2 enzyme complex lay in the range of 10 to 100 nM.

Take `CCN(c1cc(O[C@H]2C[C@H](N3CCNCC3)C2)cc(C(=O)NCc2c(C)cc(C)[nH]c2=O)c1Cl)C1CCOCC1` [Example 43, 2-chloro-N-((4,6-dimethyl-2-oxo-1,2-dihydropyridin-3-yl)methyl)-3-(ethyl(tetrahydro-2H-pyran-4-yl)amino)-5-(trans-3-(piperazin-1-yl)cyclobutoxy)benzamide]: the IC50 at EZH2 enzyme complex fell in the range of 10 to 100 nM.

As for `CCN(c1cc(O[C@H]2C[C@H](N3CCOCC3)C2)cc(C(=O)NCc2c(C)cc(C)[nH]c2=O)c1C)C1CCOC1` (stereo partly drawn) [Example 64, N-((4,6-dimethyl-2-oxo-1,2-dihydropyridin-3-yl)methyl)-3-(ethyl(tetrahydrofuran-3-yl)amino)-2-methyl-5-(trans-3-morpholin-4-ylcyclobutoxy)benzamide], the IC50 at EZH2 enzyme complex lay in the range of 10 to 100 nM.

Turning to `CCN(c1cc(O[C@H]2C[C@@H](N3CCOCC3)C2)cc(C(=O)NCc2c(C)cc(C)[nH]c2=O)c1Cl)C1CCOCC1` [Example 40, 2-chloro-N-((4,6-dimethyl-2-oxo-1,2-dihydropyridin-3-yl)methyl)-3-(ethyl(tetrahydro-2H-pyran-4-yl)amino)-5-(cis-3-morpholinylcyclobutoxy)benzamide], the half-maximal inhibitory concentration (IC50) at EZH2 enzyme complex was in the range of 10 to 100 nM.

As to `CCN(c1cc(O[C@H]2C[C@H](N3CCOCC3)C2)cc(C(=O)NCc2c(C)cc(C)[nH]c2=O)c1Cl)C1CCOCC1` [Example 41, 2-chloro-N-((4,6-dimethyl-2-oxo-1,2-dihydropyridin-3-yl)methyl)-3-(ethyl(tetrahydro-2H-pyran-4-yl)amino)-5-(trans-3-morpholinylcyclobutoxy)benzamide], the IC50 on EZH2 enzyme complex lay within 10 to 100 nM.

Regarding `CCN(c1cc(O[C@H]2C[C@H](N3CCC(C)CC3)C2)cc(C(=O)NCc2c(C)cc(C(F)(F)F)[nH]c2=O)c1Cl)C1CCOCC1` [Example 90], at EZH2 enzyme complex, the IC50 was above 1000 nM.

In the case of `CCN(c1cc(O[C@H]2C[C@H](N3CCCCC3)C2)cc(C(=O)NCc2c(C)cc(C)[nH]c2=O)c1Cl)C1CCOCC1` [Example 66, 2-chloro-N-((4,6-dimethyl-2-oxo-1,2-dihydropyridin-3-yl)methyl)-3-(ethyl(tetrahydro-2H-pyran-4-yl)amino)-5-(trans-3-(piperidin-1-yl)cyclobutoxy)benzamide], in series [1], the F turned out to be 38.3%, the CL turned out to be 53.5 ± 13.44 mL/min/lg, the area under the curve AUC(0-inf) stood at 31200 ng·h/mL and the Cmax is 16700 ± 4970 ng/mL. Further, in series [1], the Tmax turned out to be 25.2 ± 8.4 min and the half-life is 303 ± 45 min.

For `CCN(c1cc(O[C@H]2C[C@H](N3C[C@@H](C)O[C@@H](C)C3)C2)cc(C(=O)NCc2c(C)cc(C)[nH]c2=O)c1C)C1CCOCC1` [Example 44, N-((4,6-dimethyl-2-oxo-1,2-dihydropyridin-3-yl)methyl)-5-(trans-3-(cis-2,6-dimethylmorpholinyl)cyclobutoxy)-3-(ethyl(tetrahydro-2H-pyran-4-yl)amino)-2-methylbenzamide], on EZH2 enzyme complex, the IC50 lay in the range of 10 to 100 nM.

As to `CCN(c1cc(O[C@H]2C[C@@H](N3CCNCC3)C2)cc(C(=O)NCc2c(C)cc(C)[nH]c2=O)c1Cl)C1CCOCC1` [Example 42, 2-chloro-N-((4,6-dimethyl-2-oxo-1,2-dihydropyridin-3-yl)methyl)-3-(ethyl(tetrahydro-2H-pyran-4-yl)amino)-5-(cis-3-(piperazin-1-yl)cyclobutoxy)benzamide], the concentration for half-maximal inhibition (IC50) on EZH2 enzyme complex lay within 10 to 100 nM.

`CCN(c1cc(O[C@H]2C[C@H](N3CCC(C)CC3)C2)cc(C(=O)NCc2c(OC)cc(C)[nH]c2=O)c1Cl)C1CCOCC1` [Example 89]: the IC50 on EZH2 enzyme complex lay in the range of 10 to 100 nM.

As to `Cc1cc(C)c(CNC(=O)c2cc(OC3CCC3)cc(OC3CCOCC3)c2C)c(=O)[nH]1` [Example 5, 5-cyclobutoxy-N-((4,6-dimethyl-2-oxo-1,2-dihydropyridin-3-yl)methyl)-2-methyl-3-((tetrahydro-2H-pyran-4-yl)oxy)benzamide], on EZH2 enzyme complex, the IC50 is 100 to 1000 nM.
